Reference: patent US9611276B2, “Imidazo bicyclic iminium compounds as antitumor agents” (THE BOARD OF TRUSTEES OF THE LELAND STANFORD JUNIOR …, priority 2012, dated 2017)

Each molecule was assayed on medulloblastoma allograft tumors (assay: Murine medulloblastoma allograft model). Conditions: 2 mg/kg/day, intraperitoneal, day 5.
Format: in vivo, mouse
Experimental: Murine medulloblastoma allograft model: Ptch1+/−; p53+/−; Math1:GFP mice were mated to generate pups with the appropriate genotype of Ptch1+/−; p53−/−; Math1:GFP. These mice will get medulloblastoma tumors when they are 6 to 10 weeks of age. The primary medulloblastoma tumors were harvested, dissected, dissociated by papain treatment and tissue trituration, and injected into the flanks of nude mice as a Matrigel mixture (50 μL of 2×10^7 tumor cells mixed with 50 μL of Matrigel). Secondary and tertiary tumors can subsequently be derived from these allografts as necessary. The length, width, and depth of each allograft were monitored, and compound testing began when the tumors reached a volume of 150 mm3 (approximately one week after tumors were first visible). The compounds were dissolved in a minimum volume of DMSO, and the DMSO solution was mixed with sterile corn oil so that the DMSO constituted less than 10% of the total volume. The drug was administered by intraperitoneal injection (50 μL), with each daily dose divided into two portions and administered at 12-hour intervals. The Smoothened antagonist vismodegib was administered at 50 mg/kg/day as a positive control.

SMILES | Tumor volume compared to control
CCOc1ccc(-c2c[n+](-c3ccc(OC)cc3)c3n2-c2ccccc2CC3)cc1.[Br-] [Compound E-1] | reduced tumor volume by half

What follows are molecules tested against T1, Smo (Mus musculus, UniProt P56726) (assay: Smo trafficking assay in NIH 3T3 cells). Conditions: Hh-responsive cells, ShhN stimulation.
T1 construct: endogenous in cells; host or cells: NIH 3T3
Format: cell-based
Description: The cells were imaged using a Plan Apochromat 63×/1.4-0.6 oil immersion objective on an upright Leica DM4500B compound microscope.

T1 sequence (P56726 33-793): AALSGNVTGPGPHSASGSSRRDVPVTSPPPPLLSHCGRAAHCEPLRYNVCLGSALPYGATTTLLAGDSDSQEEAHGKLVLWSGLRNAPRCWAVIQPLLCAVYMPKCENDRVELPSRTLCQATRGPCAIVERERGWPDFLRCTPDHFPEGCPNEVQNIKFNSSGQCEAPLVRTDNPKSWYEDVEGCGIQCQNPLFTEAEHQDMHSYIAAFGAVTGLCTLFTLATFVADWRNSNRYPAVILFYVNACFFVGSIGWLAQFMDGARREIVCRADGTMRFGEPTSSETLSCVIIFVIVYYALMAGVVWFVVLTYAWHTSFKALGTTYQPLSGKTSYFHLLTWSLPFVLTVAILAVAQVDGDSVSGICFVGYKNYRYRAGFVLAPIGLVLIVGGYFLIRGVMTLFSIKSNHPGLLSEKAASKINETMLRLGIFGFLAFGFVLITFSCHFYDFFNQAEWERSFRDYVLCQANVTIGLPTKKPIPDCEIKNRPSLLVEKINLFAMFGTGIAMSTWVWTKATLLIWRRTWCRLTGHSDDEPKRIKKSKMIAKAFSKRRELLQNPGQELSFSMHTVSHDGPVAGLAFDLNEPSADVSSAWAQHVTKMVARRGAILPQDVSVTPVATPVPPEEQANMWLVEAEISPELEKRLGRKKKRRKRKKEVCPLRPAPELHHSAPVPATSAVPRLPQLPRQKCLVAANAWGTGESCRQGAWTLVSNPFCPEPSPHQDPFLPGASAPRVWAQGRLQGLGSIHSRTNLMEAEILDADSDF

SMILES | Effect on Smo localization / trafficking
CC1=C2C[C@H]3[C@@H](CC=C4C[C@@H](O)CC[C@@]43C)[C@@H]2CC[C@]12O[C@@H]1C[C@H](C)CN[C@H]1[C@H]2C [cyclopamine, reference compound] | alters Smo trafficking

These molecules were tested on Gli2 (assay: Gli2 trafficking assay in NIH 3T3 cells). Conditions: ShhN treatment.
Format: cell-based
Experimental: NIH 3T3 cells were also employed in an assay to quantify Gli2 trafficking NIH-3T3 cells were seeded into 24-well plates containing poly-D-lysine-coated 12-mm glass coverslips (65,000 cells/well) and cultured for 24 hrs. […] Each compound or vehicle treatment was conducted in biological triplicates in the presence or absence of 10% (v/v) ShhN-conditioned medium. The cells were subsequently fixed in PBS containing 4% (v/v) paraformaldehyde for 12 min at room temperature, washed three times with PBS, permeabilized in PBS containing 0.5% (v/v) Triton X-100 for 5 min, and washed again twice in PBS. […] After three PBS washes, the coverslips were mounted onto slides using Prolong Gold Antifade Reagent with DAPI (Invitrogen, P36931). The cells were imaged using a Plan Apochromat 63×/1.4-0.6 oil immersion objective on an upright Leica DM4500B compound microscope. Ciliary Gli2 levels were quantified by determining total pixel intensity within a circular region manually placed at the distal end of each cilium and subtracting background fluorescence in an adjacent region of equivalent size. A total of 30 cilia from three coverslips were analyzed to determine the average ciliary Gli2 level for each experimental condition as a measure of Gli2 trafficking.

SMILES | Effect on ShhN-induced Gli2 accrual at the ciliary distal tip
CC1=C2C[C@H]3[C@@H](CC=C4C[C@@H](O)CC[C@@]43C)[C@@H]2CC[C@]12O[C@@H]1C[C@H](C)CN[C@H]1[C@H]2C [cyclopamine, reference compound] | cyclopamine-sensitive

What follows are molecules tested on SANT-1-resistant BCC line (assay: Proliferation of SANT-1-resistant BCC line). Conditions: not given.
Format: cell-based, mouse
Description: (§1) Murine basal cell carcinomas (BCCs) were derived from Ptch1+/−; p53−/− mice subjected to UV radiation [Aszterbaum et al., Nat. Med. (1999) 5:1285-91]. A line resistant to the Smo antagonist SANT-1 was obtained by culturing the cells in media containing increasing concentrations of the inhibitor until the majority of cells were killed and resistant clones emerged.

SMILES | Proliferation of SANT-1-resistant line
CCOc1ccc(-[n+]2cc(-c3ccc(-c4ccccc4)cc3)n3c2CCCCC3)cc1 [Compound A-8] | able to block the proliferation

What follows are molecules tested on BCC cell line (assay: Murine basal cell carcinoma (BCC) cell proliferation). Conditions: not given.
Format: cell-based, mouse
Description: as §1

SMILES | Proliferation of original BCC cell line
CCOc1ccc(-[n+]2cc(-c3ccc(-c4ccccc4)cc3)n3c2CCCCC3)cc1 [Compound A-8] | able to block the proliferation

Same assay, conditions: 750 nM, dose-dependent

SMILES | BCC proliferation
CCOc1ccc(-[n+]2cc(-c3ccc(-c4ccccc4)cc3)n3c2CCCCC3)cc1 [Compound A-8] | 20 % of control

These molecules were tested on BCC allograft tumors (assay: Murine BCC allograft model). Conditions: 0.01% solution, topical, day 14.
Format: in vivo, mouse
Experimental: Murine BCC allograft model: Ptch1+/−; K14:Cre-ER2; p53fl/fl mice were injected with tamoxifen (to knock out p53) at six weeks of age, and at 8 weeks of age they were given one dose of 4 Gy of ionizing radiation. After BCCs formed and grew to 5-7 mm in diameter (typically between 6-8 months of age), they were harvested and dissociated to prepare a cell suspension. A mixture of the cell suspension and Matrigel was then injected subcutaneously into NOD/SCID mice purchased from Jackson Laboratories. Once the allografted tumors became visible, they were monitored with digital calipers and the volume was estimated by the formula (d^2)*D/2, where d is the smallest diameter of the tumor and D is the largest diameter. The compound was applied topically to the tumor as a DMSO solution (100 μL per application).

SMILES | Tumor volume compared to control
CCOc1ccc(-[n+]2cc(-c3ccc(-c4ccccc4)cc3)n3c2CCCCC3)cc1 [Compound A-8] | reduced tumor volume by half

These molecules were tested on Hh pathway activity (assay: Sufu-KO-LIGHT cell assay, Gli-dependent firefly luciferase reporter). Conditions: Mus musculus.
Format: cell-based, mouse
Experimental: Sufu-KO-LIGHT cells were derived from Sufu knockout mouse embryonic fibroblasts according to the method of Chen et al. [Genes Dev. 2009; 23(16):1910-28.] The cells were co-transfected with the zeocin resistance vector (pVgRXR, Invitrogen) and a firefly luciferase reporter driven by eight Gli binding sites and a γ-crystallin basal promoter (8XGliBS-FL) [see Sasaki et al. Development. 1997; 124(7):1313-22.2]. […] Sufu-KO-LIGHT cells were cultured in DMEM (Invitrogen, 11965) containing 10% (v/v) fetal bovine serum (Invitrogen, No. 26140), 150 μg/mL zeocin (Invitrogen, R250-01), 1 mM sodium pyruvate (Invitrogen, 11360) and 1× PenStrep (Gibco, 15140).
All test compounds were dissolved in DMSO at 50 mM, serially diluted by 1:3, 1:4 or 1:5 in a 96-well translucent microplate (Greiner bio-one, 650201) and stored at −20° C. These serial dilutions were added to assay media freshly with final DMSO concentration of 0.2% (v/v).
The Sufu-KO-LIGHT cell assay provides a measure of Hh pathway activity and cytotoxicity. Sufu-KO-LIGHT cells were seeded into a 96-well plate (35,000 cells/well), cultured to confluency for 24 hrs and then incubated with test compounds in DMEM without phenol red (Invitrogen, 26140) containing 0.5% (v/v) fetal bovine serum (Invitrogen, No. 26140), 150 μg/mL zeocin (Invitrogen, R250-01), 1 mM sodium pyruvate (Invitrogen, 11360), 1× PenStrep (Gibco, 15140) for 16 hrs. Bright Glo (Promega, E2620) reagent (50 μL/well) was added to the cells, and luciferase activities were determined on a microplate luminometer (Veritas). To assess cytotoxicity, after 15 hrs of incubation with test compounds, CellTiter 96 AQueous One Solution Cell Proliferation Assay (Promega, G3580) reagent (20 μL/well) was added. Cell viability was determined by measuring absorption at 490 nm after 1 hr of incubation on a microplate spectrophotometer (Benchmark Plus, Bio-Rad). Biological triplicates were analyzed for each test compounds.

SMILES | IC50 [µM]
Brc1ccc(-c2c[n+](-c3ccccc3)c3n2CCCCC3)cc1 [Compound A-2] | 7.9
COc1ccccc1-[n+]1cc(-c2ccc(Br)cc2)n2c1CCCCC2 [Compound A-3] | 0.34
Brc1ccc(-c2c[n+](-c3ccc4c(c3)OCCO4)c3n2CCCCC3)cc1 [Compound A-4] | 5
FC(F)(F)c1cccc(-[n+]2cc(-c3ccc(Br)cc3)n3c2CCCCC3)c1 [Compound A-5] | 12.3
Clc1ccc(-[n+]2cc(-c3ccc(Br)cc3)n3c2CCCCC3)cc1 [Compound A-6] | 11.7
COc1ccc(-c2c[n+](-c3ccc(Br)cc3)c3n2CCCCC3)cc1 [Compound A-15] | 3.3

Same assay, conditions: Mus musculus; Table 1; assay not given, A-1 value equals the Sufu-KO-LIGHT value; read-out: IC50

SMILES | IC50 [µM]
CCOc1ccc(-[n+]2cc(-c3ccc(Cl)cc3)n3c2CCCCC3)cc1 [Compound A-7] | 3
CCOc1ccc(-[n+]2cc(-c3ccc(-c4ccccc4)cc3)n3c2CCCCC3)cc1 [Compound A-8] | 0.19 ± 0.14
CCOc1ccc(-[n+]2cc(-c3ccccc3)n3c2CCCCC3)cc1 [Compound A-9] | 1.7
CCOc1ccc(-[n+]2cc(-c3ccc(OC)cc3)n3c2CCCCC3)cc1 [Compound A-10] | 2.5
COc1ccc(-[n+]2cc(-c3ccc(Cl)cc3)n3c2CCCCC3)cc1 [Compound A-11] | 2.5
COc1ccc(-[n+]2cc(-c3ccc(OC(F)F)cc3)n3c2CCCCC3)cc1 [Compound A-12] | 13.9
FC(F)Oc1ccc(-[n+]2cc(-c3ccc(Cl)cc3)n3c2CCCCC3)cc1 [Compound A-13] | 17.5
CCOc1ccc(-c2c[n+](-c3cccc(C(F)(F)F)c3)c3n2CCCCC3)cc1 [Compound A-16] | 7.4
CCc1ccc(-[n+]2cc(-c3ccc(OC(F)F)cc3)n3c2CCCCC3)cc1 [Compound A-17] | 2.9
CCOc1ccc(-c2c[n+](-c3ccccc3OC)c3n2CCCCC3)cc1 [Compound A-18] | 0.08
COc1ccccc1-[n+]1cc(-c2ccc(-c3ccccc3)cc2)n2c1CCCCC2 [Compound A-19] | 0.03

Same assay, conditions: Mus musculus; Table 2; assay not given; read-out: IC50

SMILES | IC50 [µM]
CCOc1ccc(-[n+]2c(-c3ccc(OC)cc3)cn3c2CCCCC3)cc1 [Compound C-1] | 1.6
COc1ccc(-c2cn3c([n+]2-c2ccccc2OC)CCCCC3)cc1 [Compound C-2] | 3.1
COc1ccc(-c2cn3c([n+]2-c2ccc(C)cc2)CCCCC3)cc1 [Compound C-3] | 4.2
COc1ccc(-c2cn3c([n+]2-c2ccc(Cl)cc2)CCCCC3)cc1 [Compound C-4] | 11.5
CCOc1ccc(-c2c(C)n3c([n+]2-c2ccc(OCC)cc2)CCCCC3)cc1 [Compound C-5] | 1.2
COc1ccc(-[n+]2c(-c3ccc(Cl)cc3)cn3c2CCCCC3)cc1 [Compound C-6] | 11.7
COc1ccc(-[n+]2c(-c3ccc(OC(F)F)cc3)cn3c2CCCCC3)cc1 [Compound C-7] | 6.3
COc1ccc(-[n+]2c(-c3ccccc3)cn3c2CCCCC3)cc1 [Compound C-8] | 4.1
Clc1ccc(-c2cn3c([n+]2-c2ccc(Cl)cc2)CCCCC3)cc1 [Compound C-9] | 27

Same assay, conditions: Mus musculus; Table 3; assay not given; read-out: IC50

SMILES | IC50 [µM]
CCOc1ccc(-[n+]2cc(-c3ccccc3)n3c2CCC3)cc1 [Compound D-1] | 0.96
COc1ccc(-c2c[n+](-c3ccc(OC)cc3)c3n2CCS3)cc1 [Compound D-2] | 3.1
COc1ccc(-[n+]2cc(-c3ccc(C)cc3)n3c2SC(C)C3)cc1 [Compound D-3] | 1.1
COc1ccc(-[n+]2cc(-c3ccc(Br)cc3)n3c2SCC3C)cc1 [Compound D-4] | 2.6
COc1ccc(-[n+]2cc(-c3ccc(Cl)cc3)n3c2SCCC3)cc1 [Compound D-5] | 2.4
COc1ccc(-c2c[n+](-c3ccc(OC)cc3)c3n2CCOC3)cc1 [Compound D-6] | 14.1
CCOc1ccc(-c2c[n+](-c3ccc(OC)cc3)c3n2-c2ccccc2CC3)cc1.[Br-] [Compound E-1] | 0.14
